Results as given in patent publication US9913905B2 (EAGLE BIOLOGICS, INC., priority 2013, dated 2018).
Several values for one entry are separate records, joined by “and”; a condition that tells them apart may be missing. Equal values may be shown once.

Legend:
biosimilar AVASTIN® = assay: Viscosity of concentrated aqueous solutions of biosimilar AVASTIN® (mVROC microfluidic viscometer); format: physicochemical
Experimental: All viscosities of well-mixed aqueous mAb solutions were measured using either a mVROC microfluidic viscometer (RheoSense) or a DV2T cone and plate viscometer (Brookfield; “C & P”) after a 5 minute equilibration at 25° C. (unless otherwise indicated). The mVROC viscometer was equipped with an “A” or “B” chip, each manufactured with a 50 micron channel. Typically, 0.10 mL of protein solution was back-loaded into a gastight microlab instrument syringe (Hamilton; 100 μL), affixed to the chip, and measured at multiple flow rates, approximately 20%, 40%, and 60% of the maximum pressure for each chip. […] An average absolute viscosity and standard deviation was then calculated from at least these three measurements. The C & P viscometer was equipped with a CPE40 or CPE52 spindle (cone angle of 0.8° and 3.0°, respectively) and 0.50 mL samples were measured at multiple shear rates between 2 and 400 s^−1. […] An extrapolated zero-shear viscosity was then determined from a plot of dynamic viscosity versus shear rate for the samples measured on a DV2T cone and plate viscometer. The extrapolated zero-shear viscosities reported are the average and standard deviation of at least three measurements.
First, Polysorbate 20 was removed using DETERGENT-OUT® TWEEN Medi Columns (G-Biosciences). […] Then, an appropriate amount of viscosity-reducing organophosphate solution (pH 7.0) was added to each aliquot such that upon reconstitution with water, the final excipient concentration was 0.10-0.25 M. The protein solutions were then freeze-dried. The dried protein cakes, containing protein and viscosity-reducing organophosphate (and a negligible amount of buffer salts) were reconstituted to a final volume of approximately 0.1 mL and viscosity-reducing organophosphate concentration as previously described. […] The dried protein cakes, containing protein and buffer salts were reconstituted to a final volume of approximately 0.10-0.50 mL. […] Viscosities reported were measured on a RheoSense mVROC microfluidic viscometer.
Viscosities reported were measured on a RheoSense mVROC microfluidic viscometer.

HERCEPTIN® = assay: Viscosity of concentrated aqueous solutions of HERCEPTIN® (mVROC microfluidic viscometer); format: physicochemical; conditions: organophosphate 0.25M
TYSABRI® = assay: Viscosity of concentrated aqueous solutions of TYSABRI® (mVROC microfluidic viscometer); format: physicochemical; conditions: organophosphate 0.25M
biosimilar RITUXAN® = assay: Viscosity of concentrated aqueous solutions of biosimilar RITUXAN® (mVROC microfluidic viscometer); format: physicochemical; conditions: organophosphate 0.10M
Experimental: (unless otherwise indicated).
A commercially-obtained biosimilar AVASTIN® (100-400 mg) containing pharmaceutical excipients (Polysorbate 20, phosphate and citrate buffers, mannitol, and NaCl) was purified. […] Samples buffer exchanged into 2 mM PB were first aliquoted. […] For samples buffer exchanged into 20 mM PB (PB control samples), the collected protein solution was freeze-dried. […] Using the same protocol, formulations containing biosimilar ERBITUX®, TYSABRI®, HERCEPTIN®, and […]® were also prepared.

[1] = tested on: therapeutically relevant mAbs; conditions: in some cases; Table 3
Experimental: All viscosities of well-mixed aqueous mAb solutions were measured using either a mVROC microfluidic viscometer (RheoSense) or a DV2T cone and plate viscometer (Brookfield; “C & P”) after a 5 minute equilibration at 25° C. […] The mVROC viscometer was equipped with an “A” or “B” chip, each manufactured with a 50 micron channel. Typically, 0.10 mL of protein solution was back-loaded into a gastight microlab instrument syringe (Hamilton; 100 μL), affixed to the chip, and measured at multiple flow rates, approximately 20%, 40%, and 60% of the maximum pressure for each chip. […] An average absolute viscosity and standard deviation was then calculated from at least these three measurements. The C & P viscometer was equipped with a CPE40 or CPE52 spindle (cone angle of 0.8° and 3.0°, respectively) and 0.50 mL samples were measured at multiple shear rates between 2 and 400 s^−1. Specifically, samples were measured for 30 seconds each at 22.58, 24.38, 26.25, 28.13, 30, 31.88, 45, 67.5, 90, 112.5, 135, 157.5, 180, 202.5, 247, 270, 292.5, 315, 337.5, 360, 382, 400 s^−1, starting at a shear rate that gave at least 10% torque, and continuing until instrument torque reached 100%. An extrapolated zero-shear viscosity was then determined from a plot of dynamic viscosity versus shear rate for the samples measured on a DV2T cone and plate viscometer. […]

[2] = tested on: respiratory syncytial virus; conditions: two Phase III clinical trials in the pediatric population; cited from earlier work
REMICADE® = assay: Viscosity of concentrated aqueous solutions of […]® (mVROC microfluidic viscometer); format: physicochemical
biosimilar ERBITUX® = assay: Viscosity of concentrated aqueous solutions of biosimilar ERBITUX® (mVROC microfluidic viscometer); format: physicochemical; conditions: Biosimilar ERBITUX® 215 mg/mL; excipient 0.25M
[3] = [Excipient] 0.10 M, [mAb] 217 mg/mL, 25° C., pH 7

For `Nc1ncnc2c1ncn2[C@@H]1O[C@@H]2COP(=O)(O)OC2C1O` (some centres unmarked) [cAMP-Tris, cyclic adenosine monophosphate], the Viscosity (biosimilar AVASTIN®; Table 2, [Excipient] 0.40 M, [biosimilar AVASTIN®] 176 mg/mL) was 39.2 ± 4.3 cP, the Viscosity (biosimilar AVASTIN®; Table 2, [Excipient] 0.50 M, [biosimilar AVASTIN®] 178 mg/mL) was 66.1 ± 0.4 cP and the Viscosity (biosimilar AVASTIN®; Table 3, Biosimilar AVASTIN® 216 mg/mL, organophosphate 0.25M) was 85.7 ± 10.7 cP. It also gave a Viscosity (biosimilar AVASTIN®; [Excipient] 0.25 M, [mAb] 209 mg/mL, 25° C., pH 7) of 62.1 ± 1.8 cP, a Viscosity (biosimilar AVASTIN®; [Excipient] 0.25 M, [mAb] 216 mg/mL, 25° C., pH 7) of 85.7 ± 10.7 cP and a Viscosity (HERCEPTIN®; HERCEPTIN® 235 mg/mL) of 79.5 ± 2.7 cP. For the same molecule, the Viscosity (TYSABRI®; TYSABRI® 227 mg/mL) was 80.1 ± 2.4 cP, the Viscosity (biosimilar RITUXAN®; Biosimilar RITUXAN® 199 mg/mL) was 62.6 ± 1.7 cP and the Reduction of viscosity [1] was “up to 9 fold”.

For “palivizumab: humanized mAb directed against an epitope in the A antigenic site of the F protein of respiratory syncytial virus”, the “Reduction of the risk of hospitalization due to respiratory syncytial virus infection” value [2] is listed as 55% and 45%.

Work on `Nc1ncnc2c1ncn2[C@@H]1O[C@H](COP(=O)(O)OP(=O)([O-])OP(=O)([O-])O)[C@@H](O)[C@H]1O.[Na+].[Na+]` [ATP, adenosine triphosphate] yielded a Viscosity (biosimilar AVASTIN®; [Excipient] 0.10 M, [mAb] 209 mg/mL, 25° C., pH 7) of 52.3 ± 2.3 cP and a Viscosity (biosimilar AVASTIN®; [3]) of 80.7 ± 7.1 cP.

Work on `Nc1ncnc2c1ncn2[C@H]1C[C@H](O)[C@@H](COP(=O)(O)OP(=O)(O)OP(=O)(O)O)O1` [dATP-Tris, deoxyadenosine triphosphate] yielded a Viscosity (biosimilar AVASTIN®; [Excipient] 0.10 M, [mAb] 196 mg/mL, 25° C., pH 7) of 127 ± 0.2 cP.

Work on `Nc1ccn([C@H]2C[C@H](O)[C@@H](COP(=O)(O)OP(=O)(O)OP(=O)(O)O)O2)c(=O)n1` [dCTP-Tris, deoxycytidine triphosphate] yielded a Viscosity (biosimilar AVASTIN®; [3]) of 325 ± 13 cP.

For `CN(CC(=O)O)C(=N)NP(=O)(O)O` [Phosphocreatine], the Viscosity (biosimilar AVASTIN®; [Excipient] 0.25 M, [mAb] 231 mg/mL, 25° C., pH 7) was >>200 cP.

`Nc1nc2c(ncn2[C@H]2CC(O)[C@@H](COP(=O)(O)OP(=O)(O)OP(=O)(O)O)O2)c(=O)[nH]1` (some centres unmarked) [dGTP-Tris, deoxyguanosine triphosphate] gave a Viscosity (biosimilar AVASTIN®; [3]) of 238 ± 31 cP.

With `Cc1cn([C@H]2CC(O)[C@@H](COP(=O)(O)OP(=O)(O)OP(=O)(O)O)O2)c(=O)[nH]c1=O` (some centres unmarked) [dTTP-Tris, deoxythymidine triphosphate] the Viscosity (biosimilar AVASTIN®; [Excipient] 0.10 M, [mAb] 221 mg/mL, 25° C., pH 7) was 207 ± 6 cP.

With `Nc1nc2c(ncn2[C@@H]2O[C@H](COP(=O)(O)OP(=O)(O)OP(=O)(O)O)[C@@H](O)[C@H]2O)c(=O)[nH]1` [GTP] the Viscosity (biosimilar AVASTIN®; [Excipient] 0.10 M, [mAb] 205 mg/mL, 25° C., pH 7) was 150 ± 12 cP.

Work on “nicotinamide adenine dinucleotide phosphate [NADP]” yielded a Viscosity (biosimilar AVASTIN®; [Excipient] 0.10 M, [mAb] 204 mg/mL, 25° C., pH 7) of 165 ± 23 cP and a Viscosity (biosimilar AVASTIN®; [Excipient] 0.25 M, [mAb] 186 mg/mL, 25° C., pH 7) of 242 ± 16 cP.

`Nc1ncnc2c1ncn2[C@@H]1O[C@H](COP(=O)(O)OP(=O)(O)O)[C@@H](O)[C@H]1O` [ADP, Adenosine Diphosphate] gave a Viscosity (biosimilar AVASTIN®; [Excipient] 0.10 M, [mAb] 215 mg/mL, 25° C., pH 7) of 76.6 ± 2.2 cP.

For `C=C(OP(=O)(O)O)C(=O)O` [Phosphoenol pyruvate], the Viscosity (biosimilar AVASTIN®; [Excipient] 0.25 M, [mAb] 193 mg/mL, 25° C., pH 7) was >>200 cP.

With `Cc1ncc(C[n+]2csc(CCOP(=O)(O)OP(=O)([O-])O)c2C)c(N)n1.Cc1nccn1CCCN` [TPP-APMI, thiamine pyrophosphate 1-(3-aminopropyl)-2-methyl-1H-imidazole] the Viscosity (biosimilar AVASTIN®; Table 2, [Excipient] 0.10 M, [biosimilar AVASTIN®] 191 mg/mL) was 23.2 ± 0.9 cP, the Viscosity (biosimilar AVASTIN®; Table 2, [Excipient] 0.20 M, [biosimilar AVASTIN®] 180 mg/mL) was 20.9 ± 0.4 cP and the Viscosity (biosimilar AVASTIN®; Table 2, [Excipient] 0.50 M, [biosimilar AVASTIN®] 180 mg/mL) was 111 ± 1 cP. It also gave a Viscosity (REMICADE®; REMICADE® 223 mg/mL, organophosphate 0.25M) of 316 ± 11 cP, a Viscosity (HERCEPTIN®; HERCEPTIN® 221 mg/mL) of 60.5 ± 0.3 cP and a Viscosity (TYSABRI®; TYSABRI® 238 mg/mL) of 76.3 ± 3.2 cP.

In the case of `Nc1ncnc2c1ncn2[C@@H]1O[C@H](COP(=O)(O)O)[C@@H](O)[C@H]1O` [AMP, Adenosine Monophosphate], the Viscosity (biosimilar AVASTIN®; [Excipient] 0.10 M, [mAb] 206 mg/mL, 25° C., pH 7) is reported as 63.2 ± 1.6 cP.

In the case of `Cc1ncc(C[n+]2csc(CCOP(=O)(O)OP(=O)(O)O)c2C)c(N)n1.[Cl-]` [TPP, thiamine pyrophosphate], the “Viscosity reducing ability among the organophosphates examined” value (biosimilar AVASTIN®; Table 1, biosimilar AVASTIN®) is reported as “greatest viscosity reducing ability”, the Viscosity (biosimilar AVASTIN®; Table 2, [Excipient] 0.10 M, [biosimilar AVASTIN®] 176 mg/mL) is reported as 21.1 ± 1.7 cP and the Viscosity (biosimilar AVASTIN®; Table 2, [Excipient] 0.30 M, [biosimilar AVASTIN®] 191 mg/mL) is reported as 129 ± 5 cP. The Viscosity (biosimilar AVASTIN®; Table 3, Biosimilar AVASTIN® 216 mg/mL, organophosphate 0.1M) was 47.6 ± 2.7 cP, the Viscosity (biosimilar AVASTIN®; [Excipient] 0.10 M, [mAb] 201 mg/mL, 25° C., pH 7) was 34.6 ± 2.1 cP and the Viscosity (biosimilar AVASTIN®; [Excipient] 0.10 M, [mAb] 216 mg/mL, 25° C., pH 7) was 47.6 ± 2.7 cP. For the same molecule, the Viscosity (biosimilar AVASTIN®; [Excipient] 0.25 M, [mAb] 210 mg/mL, 25° C., pH 7) was 44.5 ± 0.9 cP, the Viscosity (REMICADE®; REMICADE® 158 mg/mL, organophosphate 0.10M) was 100 ± 9 cP and the Viscosity (REMICADE®; REMICADE® 232 mg/mL, organophosphate 0.25M) was 1773 ± 304 cP. The Viscosity (HERCEPTIN®; HERCEPTIN® 240 mg/mL) was 156 ± 3 cP, the Viscosity (biosimilar ERBITUX®) was 55.6 ± 4.8 cP and the Viscosity (biosimilar RITUXAN®; Biosimilar RITUXAN® 193 mg/mL) was 102 ± 16 cP.
